These results are taken from ChEMBL document CHEMBL1134815, “3,3a-Dihydropyrano[4,3,2-de]quinazolin-2(1H)-ones are potent non-nucleoside reverse transcriptase inhibitors” (Bioorg Med Chem Lett, 2001).

In test [1] the test system is HIV-1 reverse transcriptase (Human immunodeficiency virus 1). The experiment in a line: Inhibitory concentration against wild-type virus K103N/[…] and HIV-1 RT double mutant in whole cell antiviral assay.
The subject of test [2] is Human immunodeficiency virus type 1 reverse transcriptase (Human immunodeficiency virus 1), Q72547 [K103N].
Description: Inhibitory concentration against wild-type virus K103N and HIV-1 RT mutant in a whole cell antiviral assay
Test [3] concerns the target Human immunodeficiency virus type 1 reverse transcriptase (Human immunodeficiency virus 1) (UniProt Q72547).
Description: Inhibitory concentration against HIV-1 reverse transcriptase
Test [4] concerns the target Human immunodeficiency virus type 1 reverse transcriptase (Human immunodeficiency virus 1, UniProt Q72547). In words: Tested for inhibitory concentration against HIV-1 non-nucleoside reverse transcriptase.
The test system of test [5] is HIV-1 reverse transcriptase (Human immunodeficiency virus 1). The experiment in a line: Inhibitory concentration against wild-type virus K103N mutant in a whole cell antiviral assay.
Test [6] has the same test system. The experiment in a line: Inhibitory concentration against wild-type virus K103N/[…] and HIVdouble mutant in a whole cell antiviral assay.

The IC90 is the point of the concentration-response curve where the effect stands at 90%. A word on the IC50: it is the concentration needed to halve the response being measured. Read a high IC50 as weaker potency in that assay. Regarding `O=C1Nc2ccc(Cl)c(O)c2C(C#CC2CC2)(C(F)(F)F)N1` (stereo unspecified), the IC90 in test [1] stood at 3.02 µM; in test [2], 0.028 µM; in test [3] it was 0.0036 µM. Further, half-maximal inhibition in test [4] (IC50) was put at 0.054 µM.

As for `COc1c(Cl)ccc2c1C(C#Cc1ccccc1)(C(F)(F)F)NC(=O)N2` (stereo unspecified), the figures for the 90% effect concentration (IC90) in test [1], in test [2] and in test [3] were 5.51 µM, 0.113 µM and 0.0079 µM, respectively. This molecule also came in with an IC50 in test [4] of 0.144 µM.

On to `O=C1Nc2ccc(Cl)cc2[C@@](/C=C/C2CC2)(C(F)(F)F)N1`, for which the results for the IC90 in test [5] and in test [6] were 0.027 µM and 1.69 µM, respectively.

Molecule `O=C1Nc2ccc(Cl)cc2C(C#Cc2ccccc2)(C(F)(F)F)N1` (stereo unspecified) had an IC90 in test [2] of 0.007 µM.

`COc1c(Cl)ccc2c1C(C#CC1CC1)(C(F)(F)F)NC(=O)N2` (stereo unspecified): the IC90 in test [2] turned out to be 0.0075 µM; in test [3] it was 0.0035 µM. Also, in test [4], the IC50 was 0.07 µM.

For `O=C1Nc2ccc(Cl)c3c2C(C(F)(F)F)(C=C(C2CC2)O3)N1` (stereo unspecified), the IC90 came out at 0.076 µM in test [2] and 0.0036 µM in test [3]. This molecule showed an IC50 in test [4] of 0.09 µM.

With `O=C1Nc2ccc(Cl)cc2[C@@](C#CC2CC2)(C(F)(F)F)N1`, in test [1], the IC90 is 1.1 µM.

On to `Fc1ccc2c3c1S/C(=C\c1cccnc1)C3(C(F)(F)F)NC(S)=N2` (stereo unspecified), for which the IC90 in test [2] was 0.084 µM; in test [3] it was 0.007 µM.

For the molecule `O=C1Nc2ccc(Cl)c3c2C(C(F)(F)F)(C=C(c2cccnc2)O3)N1` (stereo unspecified), the IC90 in test [1] is 0.897 µM; in test [2], 0.076 µM; in test [3], 0.0046 µM. The half-inhibitory concentration (IC50) in test [4] was 0.122 µM.

For the molecule `O=C1Nc2ccc(Cl)c3c2C(C(F)(F)F)(C=C(c2ccccc2)O3)N1` (stereo unspecified), the IC90 in test [1] was determined as 1.66 µM; in test [2], 0.046 µM; in test [3], 0.0082 µM. The molecule further gave an IC50 in test [4] of 0.244 µM.

Turning to `COc1c(Cl)ccc2c1C(C#Cc1cccnc1)(C(F)(F)F)NC(=O)N2` (stereo unspecified), the figures for the IC90 in test [1], in test [2] and in test [3] were 2.54 µM, 0.147 µM and 0.0071 µM, respectively. Besides, the IC50 in test [4] is 0.139 µM.

For `O=C1Nc2ccc(Cl)c(O)c2C(C#Cc2ccccc2)(C(F)(F)F)N1` (stereo unspecified), the values for the IC90 in test [1], in test [2] and in test [3] were 1.94 µM, 0.03 µM and 0.0068 µM, respectively. In test [4], this molecule yielded an IC50 of 0.174 µM.
